Values of other authors as cited in patent US20050004224A1, “Treatment of Alzheimer's disease with the R(-) isomer of a 2-arylpropionic acid non-steroidal anti-inflammatory drug alone or in combination with a cyclooxygenase-2 selective inhibitor” (Pharmacia Corporation, priority 2003, published 2005).

Experiments:
[1] = system: A-beta 1-42 peptide; conditions: Weggen et al. 2001
[2] = system: murine cells; conditions: Ogawa et al. 2000
[3] = Asanuma et al. 2001
[4] = Lambat et al. 2000
[5] = system: AD models; conditions: chronic ibuprofen; some AD models; Lim et al. 2001
[6] = Lambat et al. 2000; remark: listed apart in the source
[7] = system: neuronal cells; conditions: Blasko et al. 2001
[8] = system: patients with osteoarthritis; conditions: Singer et al. 2000

| Compound | production of the amyloidogenic A-beta 1-42 peptide [1] | beta-amyloid protein and interferon-gamma-induced NO production [2] | further results |
| --- | --- | --- | --- |
| COc1ccc2c(c1)c(CC(=O)O)c(C)n2C(=O)c1ccc(Cl)cc1 [indomethacin] | reduced | reduced | – |
| CC(C(=O)O)c1cccc(C(=O)c2ccccc2)c1 (stereo not drawn) [ketoprofen] | – | – | nitric oxide-scavenging ability [3]: have such activity |
| CC(C)Cc1ccc(C(C)C(=O)O)cc1 (stereo not drawn) [ibuprofen, α-methyl-4-[isobutyl]phenylacetic acid] | reduced | reduced | cyanide-induced speroxide production [4]: reducing; inflammation and plaque-related pathology [5]: suppress; quinolinic acid-induced lipid peroxidation [6]: reducing; cytokine-induced amyloid Beta production [7]: reduced |
| CSc1ccc(/C=C2/C(C)=C(CC(=O)O)c3cc(F)ccc32)cc1 [sulindac sulfide] | reduced | – | – |
| CC(=O)Oc1ccccc1C(=O)O [aspirin] | – | did not produce such an effect | – |
| CC(C)Cc1ccc([C@H](C)C(=O)O)cc1 (single isomer, unassigned) [S(+) isomer of ibuprofen] | – | – | effective NSAID for patients with osteoarthritis [8]: effective |
